Legend:
Test in all cases: relative viability (nuclei count vs DMSO), 5 days (fraction); higher = more cells survive
NCI-H1650 = test system: NCI-H1650
In short: (§1)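 A single step with final 0.05% Triton X-100, 1% formaldehyde and 1 ug/ml Hoechst fixed the cells and stained nuclei 5 days after treatment. Lung cancer cell lines in 1536-well plates had been treated by pin tool the day after seeding with one drug alone or a fixed anchor-drug dose plus five library-drug doses (not always all listed) in √10 steps, and nuclei were counted on 4× images. Relative viability is the ratio of nuclei in treated wells to nuclei in vehicle wells, taken as the median of duplicate plates.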

NCI-H1793 = test system: NCI-H1793
In short: as §1

NCI-H1944 = test system: NCI-H1944
In short: as §1

NCI-H2087 = test system: NCI-H2087
In short: as §1

NCI-H2228 = test system: NCI-H2228
In short: as §1

NCI-H2405 = test system: NCI-H2405
In short: as §1

NCI-H3122 = test system: NCI-H3122
In short: as §1

NCI-H322M = test system: NCI-H322M
In short: as §1

NCI-H647 = test system: NCI-H647
In short: as §1

NCI-H727 = test system: NCI-H727
In short: as §1

RERF-LC-KJ = test system: RERF-LC-KJ
In short: as §1

SK-LU-1 = test system: SK-LU-1
In short: as §1

CC1(C)CCC(c2ccc(Cl)cc2)=C(CN2CCN(c3ccc(C(=O)NS(=O)(=O)c4ccc(N[C@H](CCN5CCOCC5)CSc5ccccc5)c(S(=O)(=O)C(F)(F)F)c4)cc3)CC2)C1 [Navitoclax] + O=C(CCCCCCC(=O)Nc1ccccc1)NO [Vorinostat] (partner 1 µM)
relative viability (NCI-H1650; first compound 0.005 µM): 0.5
relative viability (NCI-H1650; first compound 0.01581 µM): 0.66
relative viability (NCI-H1650; first compound 0.05 µM): 0.671
relative viability (NCI-H1650; first compound 0.1581 µM): 0.63
relative viability (NCI-H1650; first compound 0.5 µM): 0.651
relative viability (NCI-H1793; first compound 0.005 µM): 0.744
relative viability (NCI-H1793; first compound 0.01581 µM): 0.873
relative viability (NCI-H1793; first compound 0.1581 µM): 0.667
relative viability (NCI-H1793; first compound 0.5 µM): 0.444
relative viability (NCI-H1944; first compound 0.005 µM): 0.54
relative viability (NCI-H1944; first compound 0.01581 µM): 0.603
relative viability (NCI-H1944; first compound 0.1581 µM): 0.457
relative viability (NCI-H1944; first compound 0.5 µM): 0.578
relative viability (NCI-H2087; first compound 0.005 µM): 0.675
relative viability (NCI-H2087; first compound 0.01581 µM): 0.467
relative viability (NCI-H2087; first compound 0.1581 µM): 0.853
relative viability (NCI-H2087; first compound 0.5 µM): 0.848
relative viability (NCI-H2228; first compound 0.005 µM): 1.13
relative viability (NCI-H2228; first compound 0.01581 µM): 0.639
relative viability (NCI-H2228; first compound 0.1581 µM): 0.397
relative viability (NCI-H2228; first compound 0.5 µM): 0.641
relative viability (NCI-H2405; first compound 0.005 µM): 0.979
relative viability (NCI-H2405; first compound 0.01581 µM): 1.09
relative viability (NCI-H2405; first compound 0.05 µM): 1.11
relative viability (NCI-H2405; first compound 0.1581 µM): 1
relative viability (NCI-H2405; first compound 0.5 µM): 0.811
relative viability (NCI-H3122; first compound 0.005 µM): 1.05
relative viability (NCI-H3122; first compound 0.01581 µM): 0.807
relative viability (NCI-H3122; first compound 0.05 µM): 1.06
relative viability (NCI-H3122; first compound 0.1581 µM): 1.02
relative viability (NCI-H3122; first compound 0.5 µM): 0.839
relative viability (NCI-H322M; first compound 0.005 µM): 1.02
relative viability (NCI-H322M; first compound 0.01581 µM): 1.06
relative viability (NCI-H322M; first compound 0.05 µM): 0.908
relative viability (NCI-H322M; first compound 0.1581 µM): 0.843
relative viability (NCI-H322M; first compound 0.5 µM): 0.999
relative viability (NCI-H647; first compound 0.005 µM): 0.536
relative viability (NCI-H647; first compound 0.01581 µM): 0.52
relative viability (NCI-H647; first compound 0.05 µM): 0.673
relative viability (NCI-H647; first compound 0.1581 µM): 0.405
relative viability (NCI-H647; first compound 0.5 µM): 0.512
relative viability (NCI-H727; first compound 0.005 µM): 1.28
relative viability (NCI-H727; first compound 0.01581 µM): 1.34
relative viability (NCI-H727; first compound 0.05 µM): 0.901
relative viability (NCI-H727; first compound 0.1581 µM): 1.12
relative viability (NCI-H727; first compound 0.5 µM): 1.16
relative viability (RERF-LC-KJ; first compound 0.005 µM): 0.718
relative viability (RERF-LC-KJ; first compound 0.01581 µM): 0.654
relative viability (RERF-LC-KJ; first compound 0.05 µM): 0.645
relative viability (RERF-LC-KJ; first compound 0.1581 µM): 0.673
relative viability (RERF-LC-KJ; first compound 0.5 µM): 0.622
relative viability (SK-LU-1; first compound 0.005 µM): 0.787
relative viability (SK-LU-1; first compound 0.01581 µM): 0.776
relative viability (SK-LU-1; first compound 0.05 µM): 0.689
relative viability (SK-LU-1; first compound 0.1581 µM): 0.627
relative viability (SK-LU-1; first compound 0.5 µM): 0.516
